{"source": "patent US8158830B1", "about": "“Integrated process for the preparation of tetraaminobenzene” (E. I. du Pont de Nemours and Company, priority 2007, dated 2012)", "assay": "solubility of TAB.4HCl in water", "type": "physicochemical", "conditions": "water at 25° C.", "protocol": "The reaction mixture containing the precipitated TAB salt is then cooled to about 5° C. to about 15° C. and stirred, then filtered. The TAB salt is then washed 44. It may be washed with deaerated aqueous acid, such as HCl (33%), and then optionally with deaerated ethanol or methanol to produce a wet cake material; the optional ethanol or methanol wash can then be recycled 48, 47, and a purge is drawn to prevent accumulation. Using an agitated filter unit during the wash procedures can allow for a reduction of the wash volumes. Under such circumstances, using small amounts of cold water (e.g. about 5° C.) instead of the aqueous acid would also be effective as the TAB salt would have lower solubility in the cold water than it would have in water at about room temperature (e.g. 25° C.). For example, the solubility of TAB.4HCl in water at 25° C. is about 15 wt %.", "data": [{"smiles": "Nc1cc(N)c(N)cc1N", "note": "[TAB.4HCl, 1,2,4,5-tetraminobenzene]", "values": [{"measurement": "solubility in water", "value": "about 15 wt %"}]}]}
